Assay results taken from US11292778B2, “Heterocyclyl polymethine IR chromophores” (The Regents of the University of California, priority 2017, dated 2022).
Where “and” joins values, the source holds several entries; their conditions need not be identical. Equal entries are not always repeated.

Experiments:
Assay type in all cases: physicochemical
[1] = Absorbance spectra of the dyes in DCM (UV-Visible/NIR spectrophotometer)
Excerpt: (§1) The absorbance spectra in FIG. 2 and FIG. 5 were obtained in DCM on a JASCO V-770 UV-Visible/[…] spectrophotometer with a 2000 nm/min or 4000 nm/min scan rate. Plotted are the baseline corrected and normalized data. The emission spectra in FIG. 2 were taken in DCM on either a Horiba Instruments PTI QuantaMaster Series fluorometer (6), a Fluoromax-3 spectrofluorometer (1, 3-5), or home-built InGaAs array detector (Princeton Instruments). For 6 the following parameters were used: ex. 610 nm, emission collected from 620-900 nm, slits 5 nm, step size 1 nm, integration time 1 s. Plotted is the DCM corrected, baseline corrected, normalized data. For 1, and 3-5, the following parameters were used: slits 5 nm, step size 1 nm, integration time, 0.25 s. Excitation values and emission collection were as follows: 1 (ex. 460, collection 470-800 nm), 5 (ex. 675 nm, collection 685-950 nm), 4 (ex. 840 nm, emission 850-1100 nm), 3 (ex. 730 nm, emission 950-1400). Plotted are the baseline corrected, normalized data. The emission spectra in FIG. 5 were taken in dichloromethane on a Horiba Instruments QuantaMaster Series fluorometer with excitation slits: 15 nm, emission slits: 30 nm, step size: 1 nm, integration time: 0.1 s and excitation wavelengths as indicated.

[2] = Emission spectra of the dyes in DCM; conditions: dichloromethane, dyes 1, 3-6 and reference dyes
Excerpt: as §1

[3] = Absolute fluorescence quantum yield using an integrating sphere; conditions: dichloromethane; for ΦF (fluorescence quantum yield): absolute value
Method: Polymethine dyes disclosed herein are characterized with respect to their photophysics including absorption, emission, extinction coefficient, quantum yields, and fluorescence lifetime. All quantum yields values obtained are absolute quantum yields values measured using an integrating sphere. Photostabilities are evaluated by sample irradiation with high powered LEDs. Additionally, solvatochromism, solvent compatibility, and stability are assessed.

[4] = Photobleaching under continuous-wave irradiation at 532 nm; conditions: dichloromethane
Method: Photostabilities of the Flay series were measured under continuous-wave irradiation (532 nm, 0.53 fluence).

[5] = Stability of Flav7 in acetonitrile in the presence of methanol, ethanol or water (absorption over time, LCMS); conditions: for change of absorption over time: over 4 hours
Method: Concerned about the structure's susceptibility to nucleophilic attack, the stability of Flav7 in the presence of methanol, ethanol, and water was investigated. 3 was dissolved in acetonitrile, and 1-50% water, ethanol, or methanol was introduced. Changes in absorption spectra over time were monitored. […] Further evidence that 3 is stable to water include UV/Vis monitoring of the dose-dependent addition of water to 3 in acetonitrile followed by water removal.
(§2) Finally, the photoluminescence of Flav7 was compared to the prominent SWIR polymethine dyes, IR-26 and IR-1061. IR-26 has been widely-employed as a standard for this region, while IR-1061 has recently been the active component of nanomaterials for […] in vivo imaging. Despite numerous studies which rely on these dyes, the reported ΦF for IR-26 have been inconsistent, and the ΦF of IR-1061 has yet to be thoroughly characterized. Consequently, to establish that Flav7 is more emissive than existing SWIR polymethine dyes, each dye's emission was directly compared using a SWIR camera. We prepared solutions of 3, IR-26, and IR-1061 in dichloromethane with identical absorbance at 808 nm, excited with a diffuse 808 nm laser, and imaged their emission over 1000-1500 nm.

[6] = Comparative emission imaging with a SWIR InGaAs camera, 808 nm excitation
Excerpt: as §2
Spatially dispersed 808 nm illumination was used to image 1 ml samples in 2.5 mL cuvettes of the SWIR dyes alongside a DCM blank. Each dye was compared at the same position to ensure consistent camera illumination. SWIR images were collected on an InGaAs camera (Princeton Instruments, NIRvana 640) with a 1000 nm long-pass filter. The camera was cooled to −80° C., the analog to digital (AD) conversion rate set to 2 MHz, the gain set to high, and different exposure times used to achieve sufficient signal and/or frame rates. All images were background- and blemish-corrected within the LightField imaging software. […]

Solvatochromism of Flav7 = test: Solvatochromism of Flav7
Excerpt: This family of flavylium dyes has photophysical qualities that are complementary to commonly used cyanine dyes. However, the premier dye in the series is the Flav7 (3) as few emissive polymethine dyes exist in this region. Thus, we thoroughly investigated its stability. First, we explored the solvatochromism of Flav7. […] However, in polar solvents, spectral broadening and accentuation of a high-energy shoulder were observed. This behavior is consistent with SWIR polymethine dyes that experience ground state symmetry breaking due to stabilization of an asymmetric electronic structure.

Q: Which “absorption red shift past IR-27” value [1] does the source give for `CN(C)c1ccc2c(c1)OC(c1ccccc1)=C/C2=C\C=C1/CCCC(/C=C/c2cc(-c3ccccc3)[o+]c3cc(N(C)C)ccc23)=C1Cl.[O-][Cl+3]([O-])([O-])[O-]` [Dye 3, 4-((E)-2-((E)-2-chloro-3-(2-((E)-7-(dimethylamino)-2-phenyl-4H-chromen-4-ylidene)ethylidene)cyclohex-1-en-1-yl)vinyl)-7-(dimethylamino)-2-phenylchromenylium perchlorate] here?
A: Its value is ~40 nm.

Q: What about the “absorption (DCM) λmax” value ([1]; dichloromethane, in example paragraphs the longest-wavelength absorbance peak) of the same compound?
A: The value was 1026 nm.

Q: And the “emission (DCM) λmax” value [2]?
A: The value was 1045 nm.

Q: And the “emission (DCM) λmax” value ([2]; listed as Flav7)?
A: Its value is 1061 nm and 1045 nm.

Q: And the “QE, εΦF (quantum efficiency)” value [3]?
A: Its value is 1200 M⁻¹ cm⁻¹.

Q: What about the “ΦF (fluorescence quantum yield)” value [3] of the same compound?
A: Its value is 0.53±0.03% and 0.53%.

Q: What about the “ΦF (fluorescence quantum yield)” value ([3]; listed as Flav7) of the same compound?
A: Its value is 0.53% and 0.53±0.3%.

Q: And the “QE, εΦF (quantum efficiency)” value ([3]; listed as Flav7)?
A: The value was 1,200 M^−1cm^−1.

Q: What about the “relative rate, krel (photobleaching)” value ([4]; 532 nm irradiation) of the same compound?
A: Its value is 40. ± 6.

Q: And the “raw rate, k (photobleaching)” value ([4]; continuous-wave irradiation 532 nm, 0.53 fluence)?
A: The value was 28. ± 3. s^−1 × 10^−3.

Q: What about the “ε at 532 nm” value [4] of the same compound?
A: The value was 1.4 ± 0.2 M^−1cm^−1 × 10^4.

Q: And the “degradation by LCMS over time” value ([5]; 0.1 mg/mL in acetonitrile with 10% water)?
A: Its value is “no appreciable degradation”.

Q: And the “change of λmax,abs at 1013 nm” value ([5]; acetonitrile with 1% methanol)?
A: Its value is “rapid loss”.

Q: What about the “change of absorption over time” value ([5]; acetonitrile with 10% ethanol) of the same compound?
A: The value was “slight loss”.

Q: What about the “change of absorption over time” value ([5]; acetonitrile with 10% water) of the same compound?
A: Its value is “no significant change”.

Q: And the “absorbance at 1013 nm after water addition and water removal” value ([5]; acetonitrile, dose-dependent water addition followed by water removal, UV/Vis)?
A: The value was “restored upon water removal”.

Q: What about the “brightness relative to IR-26” value [6] of the same compound?
A: The value was 13 times.

Q: And the “emission intensity compared with the other SWIR dyes” value ([6]; dichloromethane, identical absorbance at 808 nm, emission 1000-1500 nm)?
A: The value was “brightest of the three dyes”.

Q: And the “variation of λmax,abs between solvents” value (Solvatochromism of Flav7; dichloromethane, dimethyl sulfoxide, acetonitrile, tetrahydrofuran, acetone)?
A: Its value is “minimal variation”.

Q: And the behaviour in methanol (Solvatochromism of Flav7; methanol as solvent)?
A: The behaviour in methanol was “immediate color change”.
